In patent US8546320B2, “Hsp9O-targeted anti-cancer chimeric peptide” (Kyoto University, priority 2008, dated 2013):
Where a SMILES comes first, the peptide text is derived from it.

How the values were obtained:
[1] = system: U937; assay: cells; type: cell-based, human; conditions: U937; for Cell Survival Rate (%): concentration not given; for Anti-cancer activity (% relative to wild-type peptide) / Decrease in cell survival rate (% relative to wild-type peptide): wild-type peptide = 100%
Experimental: A total of 3×10^3 cells per well were inoculated onto a 96 well plate, and incubated in a medium containing 10% FBS with 100 μl of a peptide diluted stepwise at 37° C. for 48 to 72 hours. The survival rate of the cells was measured by using WST-8 solution (Cell Count Reagent SF; Nacalai Tesque, Inc.).

[2] = system: cancer cells; assay: Cell viability assay, summary statements on cancer cells; type: cell-based; conditions: for effect compared with the wild-type protein (summary of mutations): single mutation in TPR or Antp region of Antp-TPR
[3] = system: Caki-1; type: cell-based, human; conditions: Caki-1; for Anti-cancer activity (% relative to wild-type peptide) / Decrease in cell survival rate (% relative to wild-type peptide): wild-type peptide = 100%
Experimental: A total of 3×10^3 cells were inoculated per well on a 96 well plate and cultured in a medium containing 10% FBS for 24 hours, and incubated with 100 μl of a peptide having a gradual increase in concentration at 37° C. for 48 to 72 hours. The survival rate of the cells was measured by using WST-8 solution (Cell Count Reagent SF; Nacalai Tesque, Inc.).
(§1) Respective variant peptides were subjected to cell viability assay. Specifically, Caki-1 (American Type Culture Collection (Manassas, Va.) was inoculated in a total amount of 3×10^3 cells per well on a 96 well plate (Nunc™); the cells were cultured in a medium (DMEM (Tesque, Inc.) containing 10% FBS (fetal bovine serum; Biowest)) for 24 hours and incubated with 100 μl of a peptide having a gradual increase in concentration at 37° C. for 48 to 72 hours. The cell survival rate was measured by using WST-8 solution (Cell Count Reagent SF; Nacalai Tesque, Inc.) and compared with that of the wild-type Antp-TPR peptide.
as §1, with “medium” for “medium (DMEM (Tesque, Inc.)”, “FBS” for “FBS (fetal bovine serum; Biowest))”

Compound: RQIKIWFQNRRMKWKKKAYARAGNSYFK (Antp-TPR I6A peptide) [Antp-I6A]
- killing effect compared with the wild-type peptide [1]: increase in effect
- Cell Survival Rate (%) [1]: 7.48%
- Anti-cancer activity (% relative to wild-type peptide) [1]: 120.54%
- Decrease in cell survival rate (% relative to wild-type peptide) [1]: 310.88%
- effect compared with the wild-type protein (summary of mutations) [2]: effect higher than the wild-type protein

Compound: CC[C@H](C)[C@H](NC(=O)[C@H](CCCNC(=N)N)NC(=O)[C@H](C)NC(=O)[C@H](Cc1ccc(O)cc1)NC(=O)[C@H](C)NC(=O)[C@H](CCCCN)NC(=O)[C@H](CCCCN)NC(=O)[C@H](CCCCN)NC(=O)[C@H](Cc1c[nH]c2ccccc12)NC(=O)[C@H](CCCCN)NC(=O)[C@H](CS)NC(=O)[C@H](CCCNC(=N)N)NC(=O)[C@H](CCCNC(=N)N)NC(=O)[C@H](CC(N)=O)NC(=O)[C@H](CCC(N)=O)NC(=O)[C@H](Cc1ccccc1)NC(=O)[C@H](Cc1c[nH]c2ccccc12)NC(=O)[C@@H](NC(=O)[C@H](CCCCN)NC(=O)[C@@H](NC(=O)[C@H](CCC(N)=O)NC(=O)[C@@H](N)CCCNC(=N)N)[C@@H](C)CC)[C@@H](C)CC)C(=O)NCC(=O)N[C@@H](CC(N)=O)C(=O)N[C@@H](CO)C(=O)N[C@@H](Cc1ccc(O)cc1)C(=O)N[C@@H](Cc1ccccc1)C(=O)N[C@@H](CCCCN)C(=O)O [Antp M12C-TPR] (H-RQIKIWFQNRRCKWKKKAYARIGNSYFK-OH; N-terminus and C-terminus assumed)
- killing effect compared with the wild-type peptide [3]: stronger than that of the wild-type peptide
- Anti-cancer activity (% relative to wild-type peptide) [3]: 102.68%
- Decrease in cell survival rate (% relative to wild-type peptide) [3]: 128.91%
- effect compared with the wild-type protein (summary of mutations) [2]: effect higher than the wild-type protein

Compound: CC[C@H](C)[C@H](NC(=O)[C@H](CCCNC(=N)N)NC(=O)[C@H](C)NC(=O)[C@H](Cc1ccc(O)cc1)NC(=O)[C@H](C)NC(=O)[C@H](CCCCN)NC(=O)[C@H](CCCCN)NC(=O)[C@H](CCCCN)NC(=O)[C@H](Cc1c[nH]c2ccccc12)NC(=O)[C@H](CCCNC(=N)N)NC(=O)[C@H](CCSC)NC(=O)[C@H](CCCNC(=N)N)NC(=O)[C@H](CCCNC(=N)N)NC(=O)[C@H](CC(N)=O)NC(=O)[C@H](CCC(N)=O)NC(=O)[C@H](Cc1ccccc1)NC(=O)[C@H](Cc1c[nH]c2ccccc12)NC(=O)[C@@H](NC(=O)[C@H](CCCCN)NC(=O)[C@@H](NC(=O)[C@H](CCC(N)=O)NC(=O)[C@@H](N)CCCNC(=N)N)[C@@H](C)CC)[C@@H](C)CC)C(=O)NCC(=O)N[C@@H](CC(N)=O)C(=O)N[C@@H](CO)C(=O)N[C@@H](Cc1ccc(O)cc1)C(=O)N[C@@H](Cc1ccccc1)C(=O)N[C@@H](CCCCN)C(=O)O [Antp K13R-TPR] (H-RQIKIWFQNRRMRWKKKAYARIGNSYFK-OH; N-terminus and C-terminus assumed)
- killing effect compared with the wild-type peptide [3]: stronger than that of the wild-type peptide
- Anti-cancer activity (% relative to wild-type peptide) [3]: 108.64%
- Decrease in cell survival rate (% relative to wild-type peptide) [3]: 360.96%
- effect compared with the wild-type protein (summary of mutations) [2]: effect similar to that of the wild-type protein

Compound: CC[C@H](C)[C@H](NC(=O)[C@H](CCCNC(=N)N)NC(=O)[C@H](C)NC(=O)[C@H](Cc1ccc(O)cc1)NC(=O)[C@H](C)NC(=O)[C@H](CCCCN)NC(=O)[C@H](CCCCN)NC(=O)[C@H](CCCCN)NC(=O)[C@H](Cc1c[nH]c2ccccc12)NC(=O)[C@H](CCCCN)NC(=O)[C@H](CCSC)NC(=O)[C@H](CCCNC(=N)N)NC(=O)[C@H](CCCNC(=N)N)NC(=O)[C@H](CC(N)=O)NC(=O)[C@H](CCC(N)=O)NC(=O)[C@H](Cc1ccccc1)NC(=O)[C@H](Cc1c[nH]c2ccccc12)NC(=O)[C@@H](NC(=O)[C@H](CCCCN)NC(=O)[C@@H](NC(=O)[C@H](CCC(N)=O)NC(=O)[C@@H](N)CCCNC(=N)N)[C@@H](C)CC)[C@@H](C)CC)C(=O)NCC(=O)N[C@@H](CC(N)=O)C(=O)N[C@@H](CO)C(=O)NCC(=O)NCC(=O)NCC(=O)O (H-RQIKIWFQNRRMKWKKKAYARIGNSGGG-OH)
- cytotoxic activity / cell-killing effect [2]: the cytotoxic activity was lower

Compound: RQIKIWFQNRRMKWKKRKFSAAIGYNKY (Antp-scramble peptide) [reference compound]
- Cell Survival Rate (%) [1]: 95.30%
- Anti-cancer activity (% relative to wild-type peptide) [1]: 6.13%
- Decrease in cell survival rate (% relative to wild-type peptide) [1]: 24.39%

Compound: RQIKIWFQNRRMKWKKKGYGRIGNYYYK (Antp-TPR A2G,A4G,S9Y,F11Y peptide) [Antp-A2G, A4G, S9Y, F11Y]
- killing effect compared with the wild-type peptide [1]: increase in effect
- Cell Survival Rate (%) [1]: 21.14%
- Anti-cancer activity (% relative to wild-type peptide) [1]: 102.73%
- Decrease in cell survival rate (% relative to wild-type peptide) [1]: 109.90%

Compound: CC[C@H](C)[C@H](NC(=O)[C@H](CCCNC(=N)N)NC(=O)[C@H](C)NC(=O)[C@H](Cc1ccc(O)cc1)NC(=O)[C@H](C)NC(=O)[C@H](CCCCN)NC(=O)[C@H](C)NC(=O)[C@@H](NC(=O)[C@H](CCC(N)=O)NC(=O)[C@H](CCCNC(=N)N)NC(=O)[C@H](CCCCN)NC(=O)[C@H](CCCCN)NC(=O)[C@H](Cc1c[nH]c2ccccc12)NC(=O)[C@H](CCCCN)NC(=O)[C@H](CCSC)NC(=O)[C@H](CCCNC(=N)N)NC(=O)[C@H](CCCNC(=N)N)NC(=O)[C@H](CC(N)=O)NC(=O)[C@H](CCC(N)=O)NC(=O)[C@H](Cc1ccccc1)NC(=O)[C@H](Cc1c[nH]c2ccccc12)NC(=O)[C@@H](NC(=O)[C@H](CCCCN)NC(=O)[C@@H](NC(=O)[C@H](CCC(N)=O)NC(=O)[C@@H](N)CCCNC(=N)N)[C@@H](C)CC)[C@@H](C)CC)[C@@H](C)CC)C(=O)NCC(=O)N[C@@H](CC(N)=O)C(=O)N[C@@H](CO)C(=O)N[C@@H](Cc1ccc(O)cc1)C(=O)N[C@@H](Cc1ccccc1)C(=O)N[C@@H](CCCCN)C(=O)O [Antp-TPR slong] (H-RQIKIWFQNRRMKWKKRQIAKAYARIGNSYFK-OH; N-terminus and C-terminus assumed)
- killing effect compared with the wild-type peptide [3]: retained the effect of wild-type peptide

Compound: CC[C@H](C)[C@H](NC(=O)[C@H](CCCCN)NC(=O)[C@@H](NC(=O)[C@H](CCC(N)=O)NC(=O)[C@@H](N)CCCNC(=N)N)[C@@H](C)CC)C(=O)N[C@@H](Cc1c[nH]c2ccccc12)C(=O)N[C@@H](Cc1ccccc1)C(=O)N[C@@H](CCC(N)=O)C(=O)N[C@@H](CC(N)=O)C(=O)N[C@@H](CCCNC(=N)N)C(=O)N[C@@H](CCCNC(=N)N)C(=O)N[C@@H](CCSC)C(=O)N[C@@H](CCCCN)C(=O)N[C@@H](Cc1c[nH]c2ccccc12)C(=O)N[C@@H](CCCCN)C(=O)N[C@@H](CCCCN)C(=O)N[C@@H](CCCCN)C(=O)N[C@@H](C)C(=O)N[C@@H](Cc1ccc(O)cc1)C(=O)N[C@@H](C)C(=O)N[C@@H](C)C(=O)N[C@@H](C)C(=O)NCC(=O)N[C@@H](CC(N)=O)C(=O)N[C@@H](CO)C(=O)N[C@@H](Cc1ccc(O)cc1)C(=O)N[C@@H](Cc1ccccc1)C(=O)N[C@@H](CCCCN)C(=O)O (H-RQIKIWFQNRRMKWKKKAYAAAGNSYFK-OH; N-terminus and C-terminus assumed)
- cytotoxic activity / cell-killing effect [2]: the cytotoxic activity was lower

Compound: RQIKIWFQNRRMKWKKKAYAAIGNSYFK (Antp-TPR R5A peptide) [Antp-R5A]
- Cell Survival Rate (%) [1]: 40.24%
- Anti-cancer activity (% relative to wild-type peptide) [1]: 77.85%
- Decrease in cell survival rate (% relative to wild-type peptide) [1]: 57.74%
- effect compared with the wild-type protein (summary of mutations) [2]: effective but with a lower effect than the wild-type protein
